Here are results for 2 molecules from patent US20230113802A1, “COMPOSITION AND METHOD TO PREPARE LONG-ACTING INJECTABLE SUSPENSION CONTAINING MULTIPLE CANCER DRUGS” (University of Washington, priority 2020, published 2023).

This series is described as follows: Pharmacokinetics of venetoclax-zanubrutinib DcNP's versus free drug in mice. The format is in vivo, BALB/C mice. The note with it: for AUC: female, BALB/C, mouse, plasma; for time detectable in plasma: following administration of the nanoparticles. The source says: To quantify drug concentrations (both DcNP-bound and free drug), an extraction protocol was established to quantify venetoclax and zanubrutinib. In short, drug was solubilized by diluting the sample into ethyl acetate, liberating it from either the DcNP lipid matrix, mouse plasma, or both. Following centrifugation to remove organic material, the samples were dried with nitrogen gas, reconstituted in acetonitrile, and loaded onto an LC-MS/MS. Drug concentrations were quantified by comparing sample data with standard curves prepared from untreated mouse plasma spiked with known amounts of drug.
Separations were carried out on a Synergi column (100×2.0 mm) (Phenomenex, Torrance, USA). A C8 guard column (4.0×2.0 mm) was used (Phenomenex, USA). The separations were done under ambient temperature, and the flow rate was set to 0.55 ml/min. The mobile phase for the separations consisted of buffers A (water with 20 mM ammonium acetate) and B (acetonitrile). The single mobile phase ran for five minutes, and it consisted of 25% buffer A and 75% buffer B.
All animal procedures complied with and were approved by the University of Washington Institutional Animal Care and Use Committee. Female BALB/C mice were used, originally obtained from Charles River Laboratories (Wilmington, Mass.). Mice were kept under pathogen-free conditions, exposed to a 12 h light/dark cycle, and received food ad libitum. Three groups of three mice each were administered ABT-199 and BGB-3111: (1) the first group received a 180 μL intravenous injection of 600 μg ABT-199 and 600 μg BGB-3111 in 0.9% NaCl, 20 mM NaHCO3 buffer with trace DMSO and Cremophor EL as solubilizing agents, (2) the second group received an intravenous injection of ABT-199 and BGB-3111 DcNP's in equivalent volume and drug molar concentration as the first group, and (3) the third group received a subcutaneous injection of ABT-199 and BGB-3111 DcNP's in the inner right leg. Plasma was collected at select time points, then extracted and analyzed by HPLC-MS/MS using the previously established protocol to determine plasma concentrations of drug over time.

Where [1] appears, read: iv, 600 ug, intravenous free drug injection (600 μg each drug).
[2] abbreviates: iv, 600 ug, intravenously administered DcNP's.
Setting [3] is: sc, subcutaneous injection of DcNP's, plasma over one week.

For the molecule `CC1(C)CCC(CN2CCN(c3ccc(C(=O)NS(=O)(=O)c4ccc(NCC5CCOCC5)c([N+](=O)[O-])c4)c(Oc4cnc5[nH]ccc5c4)c3)CC2)=C(c2ccc(Cl)cc2)C1` [Venetoclax, 4-[4-[[2-(4-chlorophenyl)-4,4-dimethylcyclohexen-1-yl]methyl]piperazin-1-yl]-N-[3-nitro-4-(oxan-4-ylmethylamino)phenyl]sulfonyl-2-(1H-pyrrolo[2,3-b]pyridin-5-yloxy)benzamide], the “AUC of subcutaneous DcNP's compared to intravenously delivered free drug (ratio)” value is listed as “over 2.62” and the “time detectable in plasma” value was “up to seven days”. The AUC (commonly concentration integrated over time) under setting [1] was 88800 ng·h/mL. In addition, the AUC under setting [2] is 216000 ng·h/mL. In addition, the area under the curve (AUC) under setting [3] worked out at 232000 ng·h/mL.
For `C=CC(=O)N1CCC([C@@H]2CCNc3c(C(N)=O)c(-c4ccc(Oc5ccccc5)cc4)nn32)CC1` [Zanubrutinib, (7S)-2-(4-phenoxyphenyl)-7-(1-prop-2-enoylpiperidin-4-yl)-4,5,6,7-tetrahydropyrazolo[1,5-a]pyrimidine-3-carboxamide] the same measures were more than 5.92, “less than one day”, 8300 ng·h/mL, 11300 ng·h/mL and 49000 ng·h/mL.
